Laboratory results reported in US9260760B2, “Method for determining complete response to anticancer therapy” (Board of Regents, The University of Texas System, priority 2012, dated 2016).
Values joined by “and” are separate entries in the source; they are usually repeats but may differ in a detail not shown here. Equal values may be shown once.

Legend:
Type in all cases: in vivo, human
[1] = Study 2: treatment-related toxicity of XCEL (CTCAE version 3.0)
Description: This retrospective study was approved by the institutional review board of The University of Texas M. D. Anderson Cancer Center. All sixty-six patients received concurrent capecitabine (Xeloda, Roche Nutley, N.J.) at mean daily dose 1000 mg/m^2/d bid for 14 days every 21 days or Monday-through Friday with radiation with daily celecoxib (CELEBREX®, Pfizer, N.Y.) at 200 mg PO b.i.d. from October 2000 to December 2003.
All patients were subjected to routine clinical examinations, laboratory analyses, and computed tomography before receiving XCEL described previously. All patient data were to be independently audited and radiographic images depicting CR were reviewed and agreed upon by two independent radiologists. All 19 patients had pathological confirmation of metastatic cancer ( ). Treatment-related toxicity was graded using the National Institutes of Health's Common Terminology Criteria for Adverse Events, version 3.0. Tumor responses were evaluated using RECIST criteria with complete response defined as complete radiographic disappearance of measurable or evaluable disease and normalization of tumor marker. The death date was ascertained by searching (ssdi.genealogy.rootsweb.com) using social security numbers. The cutoff point for collection of survival was October 2005.

[2] = Study 1: treatment-related toxicity of XCEL (CTC version 2.0)
Excerpt: The radiation was delivered to the target area using 18 MV photons with 3-D conformal planning technique. The dose of radiation was either 35-40 Gy (n=18) or >45 Gy (n=15) with dose radiation missing in one patient. […] Celecoxib was continued with capecitabine to prevent HFS and to improve survival.
All patients were subjected to routine clinical examinations, laboratory analyses, and computed tomography. Patients were seen weekly during radiotherapy if treated on site or every 6-9 weeks with physical examinations, laboratory tests, and computed tomography. Treatment-related toxicity was graded using the National Institutes of Health's Common Toxicities Criteria (CTC) version 2.0. Tumor responses were evaluated using RECIST criteria. […] Overall response rate was defined as the sum of the complete and partial response rates and the tumor control rate was defined as the sum of overall response rates with stable disease rates. The date of death was ascertained through the cancer registry or through a search of patients' social security numbers in the Social Security Death Index (ssdi.genealogy.rootsweb.com).

[3] = tested on: metastatic colorectal cancer; assay: Study 2: complete responders to XCEL; CR duration, PFS, OS, relapse
Excerpt: This retrospective study was approved by the institutional review board of The University of Texas M. D. Anderson Cancer Center. […] All patients were subjected to routine clinical examinations, laboratory analyses, and computed tomography before receiving XCEL described previously. All patient data were to be independently audited and radiographic images depicting CR were reviewed and agreed upon by two independent radiologists. All 19 patients had pathological confirmation of metastatic cancer ( ). Treatment-related toxicity was graded using the National Institutes of Health's Common Terminology Criteria for Adverse Events, version 3.0. Tumor responses were evaluated using RECIST criteria with complete response defined as complete radiographic disappearance of measurable or evaluable disease and normalization of tumor marker. The death date was ascertained by searching (ssdi.genealogy.rootsweb.com) using social security numbers. The cutoff point for collection of survival was October 2005. Continuous variables were summarized using the mean (±standard deviation) or the median (range). Categorical variables were summarized in frequency tables. Comparisons of important subgroups for these variables were made using the chi-square test or Fisher's exact test, as appropriate. Time to complete response was defined as time to start XCEL therapy to first documented radiographic complete response. Duration of complete response was defined as time to first CR to first recurrence or death. […] Patients were censored at the date of last follow-up if they had not progressed or died. Progression-free and overall survival distributions were summarized using the method of Kaplan and Meier. All response rates, progression-free survival and overall survival were calculated based on the 95% confidence interval (CI). Event chart was created using symbolized events versus time descriptively.

Structure (SMILES): Cc1ccc(-c2cc(C(F)(F)F)nn2-c2ccc(S(N)(=O)=O)cc2)cc1 [XCEL]
- mean peak MCV increase before and after XCEL ([1]; compliant patients): 10
- Hematologic toxicities ([1]; in vivo): limited to grade 1 neutropenia and thrombocytopenia
- grade ½ HFS ([1]; in vivo): 28%
- grade ½ diarrhea ([1]; in vivo): 44%
- grade ¾ lymphopenia ([1]; in vivo): 28%
- Median increase in mean corpuscular volume (MCV) before and after XCEL ([1]; range 5-20): 10
- Mild serum creatinine elevations ([2]; 3 patients after 14 to 32 months of XCEL, reversible upon discontinuation of celecoxib): 1.6 to 2.0 mg/dL
- grade ⅔ HFS ([2]; expanded study with longer follow up): 17%
- gastrointestinal bleeding, other cardiovascular events, deaths ([2]; in vivo): No gastrointestinal bleeding, other cardiovascular events, or deaths were noted
- median time to HFS peak ([2]; n=12): 6.0 months and 6 months
- median time to HFS onset ([2]; n=17): 3.8 months
- Incidence of grade 1 HFS ([2]; n=65): 14%
- Incidence of grade 2 HFS ([2]; n=65): 15%
- Incidence of grade 3 HFS ([2]; n=65): 2%
- grade ¾ lymphopenia ([2]; n=65): 24%
- lymphopenia of all grades ([2]; n=65): 56%
- relapse ([3]; all (eight relapses)): 41%
- carcinoma embryonic antigen level ([3]; all nine patients with elevated CEA): normalization of CEA
- Five-year OS ([3]; all patients): 64%
- Five-year PFS from XCEL ([3]; all patients): 57%
- median OS ([3]; all patients): 54 months
- CR rate ([3]; first-line responders): 90%
- first-line responders who achieved CR ([3]; in vivo): Eight of nine
- median time to CR ([3]; in vivo): 6.5 months
- median time to relapse from CR date ([3]; in vivo): 14 months
- Five-year PFS from XCEL ([3]; none-surgical group / unresected CR patients): 71% and 70%
- Five-year OS ([3]; none-surgical patients / unresected CR patients): 92%
- confirmed pathological CR ([3]; one patient): 5%
- median duration of CR ([3]; resected patients): 13 months
- relapse ([3]; resected patients): 67%
- CR rate ([3]; retroperitoneal nodal metastasis, with radiation): 50%
- patients who discontinued XCEL and remained in CR ([3]; six of 14 patients, median follow-up of 36 months): 43%
- median duration of CR ([3]; unresected patients): not reached
- relapse ([3]; unresected patients): 29%
- sustained CR rate ([3]; unresected patients): 70%
- CR site ([3]; unresected patients, carcinomatosis): 21%
- CR site ([3]; unresected patients, liver): 36%
- CR site ([3]; unresected patients, nodal disease): 43%
